The supplement of paper PMC3493320

The compounds below were run on NCI-H295R (assay: IC50 (antiproliferative, ATP content)). Settings: 48 h.
Procedure, shortened: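 In 1536-well plates, 1500 adrenocortical carcinoma cells per well were grown overnight in serum-free, ITS-supplemented DMEM before compounds were pin-transferred at 8 final concentrations (0.6 nM to 46 µM). After 48 h at 37 °C and 5% CO2, CellTiter-Glo luminescence was read following 20 min at room temperature and normalised to vehicle and positive-control wells. IC50 values came from logistic curve fits, with compounds lacking any concentration response listed as above the top dose.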
`CC(C)(Oc1ccc(Cl)cc1)C(=O)O` showed an IC50 greater than 46 µM.
`CC=Cc1ccc(OC)cc1` gave an IC50 greater than 46 µM.
Work on `CC(C)=CCC/C(C)=C/CC/C(C)=C/CC/C=C(\C)CC/C=C(\C)CCC=C(C)C` yielded an IC50 greater than 46 µM.
For `CCC1C2CC3[C@@H]4N(C)c5ccccc5C45CC(C2[C@H]5O)N3[C@@H]1O` (stereo not given in full), the IC50 was greater than 46 µM.
`CCCC(C)(COC(N)=O)COC(N)=O` showed an IC50 greater than 46 µM.
For `CNC(=O)NC(O)C(Cl)(Cl)Cl` (stereo not given), the IC50 was greater than 46 µM.
`CC(=O)SC[C@H](Cc1ccccc1)C(=O)NCC(=O)OCc1ccccc1` gave an IC50 greater than 46 µM.
For `NNCCc1ccccc1.O=S(=O)(O)O`, the IC50 was greater than 46 µM.
`CNC(=O)Oc1cccc2ccccc12` showed an IC50 greater than 46 µM.
`C=CC[N@@H+]1/C(=C/CO)[C@@H]2C[C@H]3[C@H]1CC[C@]31c3ccccc3N3C=C4[C@@H]5N(C=C2[C@H]31)c1ccccc1[C@@]51CC[C@H]2[C@H]1C[C@@H]4/C(=C\CO)[N@@H+]2CC=C.[Cl-].[Cl-]` was tested, and the IC50 was greater than 46 µM.
With `O=C1OC2(c3ccc([O-])cc3Oc3cc([O-])ccc32)c2ccccc21.[Na+].[Na+]` the IC50 was greater than 46 µM.
Work on `Cl.O=C(Nc1ccccc1)OCC(CN1CCCCC1)OC(=O)Nc1ccccc1` (stereo not given) yielded an IC50 greater than 46 µM.
With `OCC(O)CS` (stereo not given) the IC50 was greater than 46 µM.
For `O=P(O)(O)CP(=O)(O)O`, the IC50 was greater than 46 µM.
With `CN(C)CC/C=C1\c2ccccc2COc2ccccc21.Cl` the IC50 was greater than 46 µM.
`O=C(Nc1ccc(O)cc1)c1ccccc1O` showed an IC50 greater than 46 µM.
`Cn1c(=O)c2c(ncn2CC2OCCO2)n(C)c1=O` was tested, and the IC50 was greater than 46 µM.
`NC(=O)NC(=O)Cc1ccccc1` gave an IC50 greater than 46 µM.
Compound `CCN(CC)C(=O)C(Cl)=C(C)OP(=O)(OC)OC` has an IC50 greater than 46 µM.
`O=C(O)c1ccccc1-c1ccc(C(F)(F)F)cc1` gave an IC50 greater than 46 µM.
Compound `Nc1ccc(S(=O)(=O)Nc2cnc3ccccc3n2)cc1` has an IC50 greater than 46 µM.
With `COc1c2occc2c(OC)c2c(=O)cc(C)oc12` the IC50 was greater than 46 µM.
`CCCCC(CC)COS(=O)(=O)[O-].[Na+]` (stereo not given) gave an IC50 greater than 46 µM.
For `COc1ccc(/C=C/C(=O)Nc2ccccc2C(=O)O)cc1OC`, the IC50 was greater than 46 µM.
Compound `CCN(CC)CCNC(=O)COc1ccc(Cl)cc1` has an IC50 greater than 46 µM.
`CN[C@@H]1[C@H](O[C@H]2[C@H](O[C@H]3[C@H](O)[C@@H](O)[C@H](NC(=N)N)[C@@H](O)[C@@H]3NC(=N)N)O[C@@H](C)[C@]2(O)CO)O[C@@H](CO)[C@H](O)[C@H]1O.CN[C@@H]1[C@H](O[C@H]2[C@H](O[C@H]3[C@H](O)[C@@H](O)[C@H](NC(=N)N)[C@@H](O)[C@@H]3NC(=N)N)O[C@@H](C)[C@]2(O)CO)O[C@@H](CO)[C@H](O)[C@H]1O.O=S(=O)(O)O.O=S(=O)(O)O.O=S(=O)(O)O` was tested, and the IC50 was greater than 46 µM.
With `CCCCCCCCCCCCCCC[C@H](O)[C@H](N)CO` the IC50 was greater than 46 µM.
With `Cl.O=C1NCC2(CCN(CCc3ccccc3)CC2)O1` the IC50 was greater than 46 µM.
`CCN(CC)CCOC(=O)c1cccnc1.O=C(O)CC(O)(CC(=O)O)C(=O)O` showed an IC50 greater than 46 µM.
`O=[C@@](C)[C@@H]3[C@]2(C)[C@](CC3)([H])[C@@]1([H])[C@@](CC2)([H])[C@](CC[C@](O)(C)C4)(C)[C@@]4([H])CC1` was tested, and the IC50 was greater than 46 µM.
Compound `Cc1c(Cn2ccnc2)c2ccccc2n1CCC(=O)O` has an IC50 greater than 46 µM.
In the case of `NS(=O)(=O)c1cc2c(cc1C(F)(F)F)NCNS2(=O)=O`, the IC50 is reported as greater than 46 µM.
`CC(=O)NCCCS(=O)(=O)[O-].CC(=O)NCCCS(=O)(=O)[O-].[Ca+2]` was tested, and the IC50 was greater than 46 µM.
Compound `FC(F)(F)C(F)(F)C(F)(F)C(F)(F)C(F)(F)F` has an IC50 greater than 46 µM.
With `CCCCCCCCCCCCCCCCCC[N+](C)(C)CCC[Si](OC)(OC)OC.[Cl-]` the IC50 was greater than 46 µM.
With `Cl.O=C(OCC(O)CO)c1ccccc1Nc1ccnc2cc(Cl)ccc12` (stereo not given) the IC50 was greater than 46 µM.
Compound `C#C[C@]1(O)CC[C@H]2[C@@H]3CCC4=CC(=O)CCC4=C3C=C[C@@]21CC` has an IC50 greater than 46 µM.
In the case of `CN1C(=O)C(C)(C2=CCCCC2)C(=O)N=C1O` (stereo not given), the IC50 is reported as greater than 46 µM.
In the case of `O=c1cc(CO)occ1O`, the IC50 is reported as greater than 46 µM.
`CC(=O)OC(C)C[N+](C)(C)C.[Cl-]` (stereo not given) was tested, and the IC50 was greater than 46 µM.
For `NS(=O)(=O)c1cc(-c2nnn[nH]2)c(NCc2cccs2)cc1Cl`, the IC50 was greater than 46 µM.
With `O[C@H]1[C@@H]([C@H](O)CO)O[C@H]2[C@@H]1O[C@H]([C@@](Cl)(Cl)Cl)O2` the IC50 was greater than 46 µM.
Work on `CO/N=C(\C(=O)N[C@@H]1C(=O)N2C(C(=O)[O-])=CCS[C@H]12)c1csc(N)n1.[Na+]` yielded an IC50 greater than 46 µM.
In the case of `CO/N=C1\CN(c2nc3c(cc2F)c(=O)c(C(=O)O)cn3C2CC2)CC1CN.CS(=O)(=O)O` (stereo not given), the IC50 is reported as greater than 46 µM.
With `Cc1cc(=O)[nH]c(=S)[nH]1` the IC50 was greater than 46 µM.
Work on `CC(=O)CCC(=O)[O-].CC(=O)CCC(=O)[O-].O.O.[Ca+2]` yielded an IC50 greater than 46 µM.
In the case of `OCC(O)CO`, the IC50 is reported as greater than 46 µM.
With `CCOC(CN1CCN(CC(C)C(=O)c2ccccc2)CC1)c1ccccc1.Cl.Cl` (stereo not given) the IC50 was greater than 46 µM.
`OC[C@H]1O[C@@H]2O[C@H]3[C@H](O)[C@@H](O)[C@@H](O[C@H]4[C@H](O)[C@@H](O)[C@@H](O[C@H]5[C@H](O)[C@@H](O)[C@@H](O[C@H]6[C@H](O)[C@@H](O)[C@@H](O[C@H]7[C@H](O)[C@@H](O)[C@@H](O[C@H]8[C@H](O)[C@@H](O)[C@@H](O[C@H]1[C@H](O)[C@H]2O)O[C@@H]8CO)O[C@@H]7CO)O[C@@H]6CO)O[C@@H]5CO)O[C@@H]4CO)O[C@@H]3CO` showed an IC50 greater than 46 µM.
In the case of `CCC[C@@H]1C[C@@H](C(=O)N[C@@H]([C@H]2O[C@H](SC)[C@H](O)[C@@H](O)[C@H]2O)[C@H](C)Cl)N(C)C1.Cl`, the IC50 is reported as greater than 46 µM.
Compound `CN1CCN2c3ncccc3Cc3ccccc3C2C1` (stereo not given) has an IC50 greater than 46 µM.
Work on `CN(C)[C@@H]1C(O)=C(C(N)=O)C(=O)[C@@]2(O)C(O)=C3C(=O)c4c(O)cccc4[C@@](C)(O)[C@H]3[C@H](O)[C@@H]12.Cl` yielded an IC50 greater than 46 µM.
For `Cc1c(I)c(=O)n(-c2ccccc2)n1C`, the IC50 was greater than 46 µM.
Compound `C[C@]12CC[C@H]3[C@@H](CCC4=C(O)C(=O)CC[C@@H]43)[C@@H]1CC[C@@H]2OC(=O)CCC1CCCC1` has an IC50 greater than 46 µM.
With `CNC(=O)[C@H](Cc1c[nH]c2ccccc12)NC(=O)[C@@H](CC(=O)NO)CC(C)C` the IC50 was greater than 46 µM.
For `Cl.N=C(N)NC(=O)Cc1c(Cl)cccc1Cl`, the IC50 was greater than 46 µM.
Work on `CCOc1ccc2c3c1O[C@H]1[C@@H](O)C=C[C@H]4[C@@H](C2)N(C)CC[C@@]341` yielded an IC50 greater than 46 µM.
With `Cn1sc(Cl)cc1=O` the IC50 was greater than 46 µM.
`CC(=O)NC(Cc1ccccc1)C(=O)O` (stereo not given) gave an IC50 greater than 46 µM.
`C[C@]12CCC(=O)C[C@@H]1CC[C@@H]1[C@@H]2CC[C@]2(C)C=CC[C@@H]12` gave an IC50 greater than 46 µM.
For `CC(=O)[C@H]1CC[C@H]2[C@@H]3CC[C@H]4C[C@H](O)CC[C@]4(C)[C@H]3C(=O)C[C@]12C`, the IC50 was greater than 46 µM.
`CC(=O)OCC1=C(C(=O)O)N2C(=O)[C@@H](NC(=O)Cc3ccccc3)[C@H]2SC1` showed an IC50 greater than 46 µM.
`CCCCCCCC/C=C\CCCCCCCC(=O)O` was tested, and the IC50 was greater than 46 µM.
With `CNCC(O)c1ccc(O)cc1` (stereo not given) the IC50 was greater than 46 µM.
`Cc1cccc(C)c1NC(=O)NC1=CCCN1C` was tested, and the IC50 was greater than 46 µM.
In the case of `O=C3/C=C4/CC[C@@H]2[C@H](CC[C@]1(C)C(=O)CC[C@H]12)[C@@]4(C)CC3`, the IC50 is reported as greater than 46 µM.
With `Cl.OC(CCN1CCCC1)(c1ccccc1)C1CCCCC1` (stereo not given) the IC50 was greater than 46 µM.
In the case of `CCCCCCCCCC(=O)O[C@H]1CC[C@H]2[C@@H]3CCC4=CC(=O)CC[C@]4(C)[C@H]3CC[C@]12C`, the IC50 is reported as greater than 46 µM.
`O=[C@](COC(C(C)(C)C)=O)[C@@H]2[C@](CC1)(C)[C@](CC2)([H])[C@@](CC4)([H])[C@@]1([H])[C@](CC3)(C)C4=CC3=O` showed an IC50 greater than 46 µM.
`O=C(O)/C=C\C(=O)O.O=C(O)/C=C\C(=O)O.c1cc(CN2CCCCC2)cc(OCCCNc2nc3ccccc3s2)c1` was tested, and the IC50 was greater than 46 µM.
`COc1ccnc(CS(=O)c2nc3cc(OC(F)F)ccc3[nH]2)c1OC` (stereo not given) was tested, and the IC50 was greater than 46 µM.
Compound `CC(C)[N+](C)(CCC(C(N)=O)(c1ccccc1)c1ccccc1)C(C)C` has an IC50 greater than 46 µM.
In the case of `c1cnc(N2CCN(Cc3ccc4c(c3)OCO4)CC2)nc1`, the IC50 is reported as greater than 46 µM.
Work on `Nc1ncnc(Nc2ccccc2)n1` yielded an IC50 greater than 46 µM.
For `CN(C)CCCN1c2ccccc2C(C)(C)c2ccccc21`, the IC50 was greater than 46 µM.
With `CNC1(c2ccccc2Cl)CCCCC1=O` (stereo not given) the IC50 was greater than 46 µM.
In the case of `CCOC(=O)[C@@H](N)CS.Cl`, the IC50 is reported as greater than 46 µM.
In the case of `CC(=O)O[C@H]1C[C@@H]2CC[C@@H]3[C@H](CC[C@@]4(C)[C@H]3C[C@H]([N+]3(C)CCCCC3)[C@@H]4OC(C)=O)[C@@]2(C)C[C@@H]1[N+]1(C)CCCCC1.[Br-].[Br-]`, the IC50 is reported as greater than 46 µM.
For `CCC(COC(=O)c1cc(OC)c(OC)c(OC)c1)(c1ccccc1)N(C)C.O=C(O)/C=C\C(=O)O` (stereo not given), the IC50 was greater than 46 µM.
`Cc1cccc(C)c1NC(=O)CC12CCCN1CCC2` showed an IC50 greater than 46 µM.
`F[Si-2](F)(F)(F)(F)F.[NH4+].[NH4+]` showed an IC50 greater than 46 µM.
`CN(C)CCn1nnnc1SCC1=C(C(=O)O)N2C(=O)[C@@H](NC(=O)Cc3csc(N)n3)[C@H]2SC1.Cl.Cl` gave an IC50 greater than 46 µM.
`Nc1nc(N)c(-c2ccccc2)s1` showed an IC50 greater than 46 µM.
For `Nc1ccc(C(=O)O)cc1`, the IC50 was greater than 46 µM.
`O=[C@@](N\C(C([O-])=O)=C/CCCCSC[C@H](N)C(O)=O)[C@@H](C1)C1(C)C.[Na+]` was tested, and the IC50 was greater than 46 µM.
With `CC(C)OC(=O)C(C)(C)Oc1ccc(C(=O)c2ccc(Cl)cc2)cc1` the IC50 was greater than 46 µM.
Work on `CC1CCN(CCCC(=O)c2ccc(F)cc2)CC1` yielded an IC50 greater than 46 µM.
Work on `C=CCOc1ccccc1OCC(O)CNC(C)C.Cl` (stereo not given) yielded an IC50 greater than 46 µM.
Compound `CC(=O)CC(c1ccccc1)c1c([O-])c2ccccc2oc1=O.[K+]` (stereo not given) has an IC50 greater than 46 µM.
`CC[N+](C)(CC)CCOC(=O)C(O)(c1ccccc1)C1CCCCC1.[Br-]` (stereo not given) gave an IC50 greater than 46 µM.
Work on `CCCCC(CC)COC(=O)c1ccc(N(C)C)cc1` (stereo not given) yielded an IC50 greater than 46 µM.
Work on `O=P([O-])([O-])OP(=O)([O-])[O-].[Na+].[Na+].[Na+].[Na+]` yielded an IC50 greater than 46 µM.
In the case of `CCN(CC)CCOc1ccc2c(c1)C(=O)c1cc(OCCN(CC)CC)ccc1-2`, the IC50 is reported as greater than 46 µM.
`C[S+](C)CCC(N)C(=O)O.[Cl-]` (stereo not given) was tested, and the IC50 was greater than 46 µM.
`Cc1cccc(C)c1NC(=O)C1CCCCN1C.Cl` (stereo not given) showed an IC50 greater than 46 µM.
